This passage reports IC50 results from patent publication US10570149B2, “Tricyclic heterocylic derivatives” (MERCK PATENT GMBH, priority 2016, dated 2020).

For this assay, the target named is T1, ATR/ATRIP (Homo sapiens, UniProt Q13535).
T1 construct: human ATR, full length, GenBank ID: NM_001184.3; p53: Sf21 insect cells
T1 sequence (Q13535 whole entry): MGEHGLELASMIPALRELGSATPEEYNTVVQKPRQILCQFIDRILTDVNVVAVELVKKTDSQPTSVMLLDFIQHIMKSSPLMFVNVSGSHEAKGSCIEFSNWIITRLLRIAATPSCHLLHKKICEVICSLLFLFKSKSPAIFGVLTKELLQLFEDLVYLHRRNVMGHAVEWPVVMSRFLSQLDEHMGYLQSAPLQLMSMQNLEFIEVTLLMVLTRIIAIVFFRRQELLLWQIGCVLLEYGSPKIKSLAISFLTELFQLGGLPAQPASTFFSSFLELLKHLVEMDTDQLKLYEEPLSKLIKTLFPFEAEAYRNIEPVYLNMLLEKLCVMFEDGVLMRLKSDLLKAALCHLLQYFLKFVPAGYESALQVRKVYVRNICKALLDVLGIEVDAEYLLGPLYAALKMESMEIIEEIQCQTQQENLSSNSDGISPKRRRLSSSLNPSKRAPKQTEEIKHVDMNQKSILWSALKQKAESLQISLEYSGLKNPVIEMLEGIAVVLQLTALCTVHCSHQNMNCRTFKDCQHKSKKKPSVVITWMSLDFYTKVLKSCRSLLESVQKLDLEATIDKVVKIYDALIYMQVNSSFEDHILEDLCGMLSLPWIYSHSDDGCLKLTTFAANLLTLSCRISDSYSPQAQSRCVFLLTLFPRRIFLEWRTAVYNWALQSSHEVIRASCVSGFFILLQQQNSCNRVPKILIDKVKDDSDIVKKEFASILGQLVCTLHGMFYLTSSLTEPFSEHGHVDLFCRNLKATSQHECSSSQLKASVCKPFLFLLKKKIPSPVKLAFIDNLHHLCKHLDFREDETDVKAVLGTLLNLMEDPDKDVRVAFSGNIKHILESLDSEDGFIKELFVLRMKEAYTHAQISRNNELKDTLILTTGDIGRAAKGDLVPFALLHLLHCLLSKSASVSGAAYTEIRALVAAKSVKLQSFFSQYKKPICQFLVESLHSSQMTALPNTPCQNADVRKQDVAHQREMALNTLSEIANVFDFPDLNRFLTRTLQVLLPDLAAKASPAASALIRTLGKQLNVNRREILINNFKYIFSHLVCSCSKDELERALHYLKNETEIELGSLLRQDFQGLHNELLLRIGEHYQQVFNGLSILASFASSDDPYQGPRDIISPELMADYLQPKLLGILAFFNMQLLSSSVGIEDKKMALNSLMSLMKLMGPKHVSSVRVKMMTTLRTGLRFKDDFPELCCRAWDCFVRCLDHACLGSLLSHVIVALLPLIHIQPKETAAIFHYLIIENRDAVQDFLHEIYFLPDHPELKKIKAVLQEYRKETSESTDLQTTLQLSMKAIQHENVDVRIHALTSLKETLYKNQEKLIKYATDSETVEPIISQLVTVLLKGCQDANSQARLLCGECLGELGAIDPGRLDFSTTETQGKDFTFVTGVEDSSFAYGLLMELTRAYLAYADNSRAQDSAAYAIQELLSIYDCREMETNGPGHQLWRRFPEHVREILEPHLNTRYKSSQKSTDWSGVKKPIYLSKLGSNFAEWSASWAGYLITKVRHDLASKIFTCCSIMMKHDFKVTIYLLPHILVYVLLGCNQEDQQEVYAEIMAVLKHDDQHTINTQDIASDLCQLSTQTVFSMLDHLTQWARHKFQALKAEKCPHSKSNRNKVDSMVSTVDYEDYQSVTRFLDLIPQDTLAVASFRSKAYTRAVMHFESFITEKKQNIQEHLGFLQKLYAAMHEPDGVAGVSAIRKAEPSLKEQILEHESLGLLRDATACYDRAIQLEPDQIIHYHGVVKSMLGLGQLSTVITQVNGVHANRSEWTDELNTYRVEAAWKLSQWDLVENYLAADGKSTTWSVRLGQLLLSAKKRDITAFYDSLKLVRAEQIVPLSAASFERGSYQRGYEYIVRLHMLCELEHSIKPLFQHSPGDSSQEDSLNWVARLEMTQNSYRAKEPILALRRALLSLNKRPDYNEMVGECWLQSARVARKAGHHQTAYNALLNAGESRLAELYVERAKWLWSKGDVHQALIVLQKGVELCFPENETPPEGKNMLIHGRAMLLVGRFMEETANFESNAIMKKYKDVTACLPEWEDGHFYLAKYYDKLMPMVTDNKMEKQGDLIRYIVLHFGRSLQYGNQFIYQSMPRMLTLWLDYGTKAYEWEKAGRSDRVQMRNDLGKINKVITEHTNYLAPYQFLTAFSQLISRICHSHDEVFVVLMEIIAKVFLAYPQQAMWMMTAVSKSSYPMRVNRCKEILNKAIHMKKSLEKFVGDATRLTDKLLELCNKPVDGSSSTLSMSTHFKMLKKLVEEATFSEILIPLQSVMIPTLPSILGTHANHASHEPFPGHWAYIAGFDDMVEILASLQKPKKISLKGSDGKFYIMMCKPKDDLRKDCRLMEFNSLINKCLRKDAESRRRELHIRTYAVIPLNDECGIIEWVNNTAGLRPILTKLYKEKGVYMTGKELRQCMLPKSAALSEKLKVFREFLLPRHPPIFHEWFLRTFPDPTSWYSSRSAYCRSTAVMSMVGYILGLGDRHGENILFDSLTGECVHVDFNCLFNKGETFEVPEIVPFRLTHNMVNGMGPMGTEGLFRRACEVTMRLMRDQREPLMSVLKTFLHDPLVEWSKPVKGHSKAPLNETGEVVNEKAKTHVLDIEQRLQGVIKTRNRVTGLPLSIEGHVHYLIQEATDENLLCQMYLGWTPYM
T1 sequence (Q8WXE1 whole entry partner): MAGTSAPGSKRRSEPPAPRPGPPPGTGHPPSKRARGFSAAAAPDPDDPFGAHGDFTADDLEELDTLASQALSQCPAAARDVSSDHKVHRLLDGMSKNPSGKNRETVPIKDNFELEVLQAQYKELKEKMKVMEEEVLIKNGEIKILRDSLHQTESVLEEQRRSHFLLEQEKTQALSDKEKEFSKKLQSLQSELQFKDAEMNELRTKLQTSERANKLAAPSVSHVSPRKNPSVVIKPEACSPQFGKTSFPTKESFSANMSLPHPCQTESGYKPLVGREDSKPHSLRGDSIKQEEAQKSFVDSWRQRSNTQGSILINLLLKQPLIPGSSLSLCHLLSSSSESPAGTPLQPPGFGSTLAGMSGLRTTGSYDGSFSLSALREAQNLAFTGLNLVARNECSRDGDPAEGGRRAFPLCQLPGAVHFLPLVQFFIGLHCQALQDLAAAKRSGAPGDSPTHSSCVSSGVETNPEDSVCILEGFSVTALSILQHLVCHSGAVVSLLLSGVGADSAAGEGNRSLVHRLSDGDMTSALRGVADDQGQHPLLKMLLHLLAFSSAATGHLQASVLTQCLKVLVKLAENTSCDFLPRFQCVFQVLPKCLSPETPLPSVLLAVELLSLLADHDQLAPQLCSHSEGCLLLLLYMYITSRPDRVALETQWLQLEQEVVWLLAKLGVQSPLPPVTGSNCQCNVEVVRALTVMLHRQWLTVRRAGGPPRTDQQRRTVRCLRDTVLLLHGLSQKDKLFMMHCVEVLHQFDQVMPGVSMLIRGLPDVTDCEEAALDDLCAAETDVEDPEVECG
Briefly: ATR/ATRIP kinase assay (TR-FRET, p53 phosphorylation). Format: biochemical. The settings on record: Table 1, class symbols; read-out: ATR-ATRIP IC50. Here is the method: ATR/ATRIP Kinase Assay—Measurement of ATR/ATRIP Inhibition
The IC50 value was determined by an ATR/ATRIP enzymatic assay. The assay comprises two steps: the enzymatic reaction and the detection step. First, a mixture of ATR/ATRIP protein (Ataxia Telangiectasia and Rad3-related protein/ATR interacting protein), the compound in question at different concentrations, p53 as substrate protein and adenosine triphosphate (ATP) are incubated in assay buffer. ATR phosphorylates p53 at Ser15 and other residues. The amount of phosphorylated p53 is then detected using specific antibodies and the TR-FRET assay technology.
In detail: The ATR/ATRIP enzymatic assay is performed as a TR-FRET-(HTRF™, Cisbio Bioassays) based 384-well assay. In a first step, purified human recombinant ATR/ATRIP (human ATR, full length, GenBank ID: NM_001184.3, and human ATRIP, full length, GenBank ID AF451323.1, co-expressed in a mammalian cell line) is incubated in assay buffer for 15 minutes at 22° C. with test compound at different concentrations or without test compound (as a negative control). The assay buffer contains 25 mM HEPES pH 8.0, 10 mM Mg(CH3COO)2, 1 mM MnCl2, 0.1% BSA, 0.01% Brij® 35, and 5 mM dithiothreitol (DTT). […] Then, in a second step, purified human recombinant cmyc-tagged p53 (human p53, full length, GenBank ID: BC003596, expressed in Sf21 insect cells) and ATP are added and the reaction mixture is incubated for 25-35 minutes, typically 25 minutes, at 22° C. The pharmacologically relevant assay volume is 5 μl. The final concentrations in the assay during incubation of the reaction mixture are 0.3-0.5 nM, typically 0.3 nM, ATR/ATRIP, 50 nM p53, and 0.5 μM ATP. The enzymatic reaction is stopped by the addition of EDTA. […] Following signal development for 2 h the plates are analyzed in an EnVision (PerkinElmer) microplate reader using the TRF mode with laser excitation. […] Data are processed employing the Genedata Screener software. In particular, IC50 values are determined in the usual manner by fitting a dose-response curve to the data points using nonlinear regression analysis.
On the technique in general: TR-FRET usually uses a lanthanide donor and a delayed reading to cut background.
The term IC50 denotes the concentration that inhibits the measured activity by half. Regarding `C[C@@H]1COC[C@H]2COc3c(nc(C(=O)Nc4nnc[nH]4)nc3C(C)(C)S(C)(=O)=O)N21` [A55, (4bS,6R)-1-(1-methanesulfonyl-1-methyl-ethyl)-5-methyl-5,6,8a,9-tetrahydro-8H-7,10-dioxa-2,4,4b-triaza-phenanthrene-3-carboxylic Acid (4H-[1,2,4]triazol-3-yl)-amide], the IC50 was in the range of 10 to 100 nM.

For `CC(CO)NC(=O)c1nc2c(c(C(C)(C)S(C)(=O)=O)n1)OC[C@@H]1COC[C@@H](C)N21` (stereo partly drawn) [A56, (4bS,6R)-1-(1-methanesulfonyl-1-methyl-ethyl)-5-methyl-5,6,8a,9-tetrahydro-8H-7,10-dioxa-2,4,4b-triaza-phenanthrene-3-carboxylic Acid (2-hydroxy-1-methyl-ethyl)-amide], the IC50 lay within 500 to 30000 nM.

Consider `C[C@@H]1COC[C@H]2COc3c(nc(C(=O)Nc4ccnnc4)nc3C(C)(C)S(C)(=O)=O)N21` [A57, (4bS,6R)-1-(1-methanesulfonyl-1-methyl-ethyl)-5-methyl-5,6,8a,9-tetrahydro-8H-7,10-dioxa-2,4,4b-triaza-phenanthrene-3-carboxylic Acid pyridazin-4-ylamide], for which the IC50 was 500 to 30000 nM.

In the case of `C[C@@H]1COC[C@H]2COc3c(nc(C(=O)Nc4ncccn4)nc3C(C)(C)S(C)(=O)=O)N21` [A58, (4bS,6R)-1-(1-methanesulfonyl-1-methyl-ethyl)-5-methyl-5,6,8a,9-tetrahydro-8H-7,10-dioxa-2,4,4b-triaza-phenanthrene-3-carboxylic Acid pyrimidin-2-ylamide], the IC50 lay in the range of 500 to 30000 nM.

As to `C[C@@H]1COC[C@H]2COc3c(nc(-c4ccc(-c5ccn[nH]5)cc4)nc3C(C)(C)S(C)(=O)=O)N21` [A60, (5R,8aS)-1-(1-methanesulfonyl-1-methyl-ethyl)-5-methyl-3-[4-(2H-pyrazol-3-yl)-phenyl]-5,6,8a,9-tetrahydro-8H-7,10-dioxa-2,4,4b-triaza-phenanthrene], the IC50 lay in the range of 10 to 100 nM.

With `C[C@@H]1COC[C@H]2COc3c(nc(-c4ccc(C5(N)COC5)cc4)nc3C(C)(C)S(C)(=O)=O)N21` [A62, 3-{4-[(5R,8aS)-1-(1-methanesulfonyl-1-methyl-ethyl)-5-methyl-5,6,8a,9-tetrahydro-8H-7,10-dioxa-2,4,4b-triaza-phenanthren-3-yl]-phenyl}-oxetan-3-ylamine], the IC50 fell in the range of 500 to 30000 nM.

As for `C[C@@H]1COC[C@H]2COc3c(nc(NCc4cn[nH]c4)nc3C(C)(C)S(C)(=O)=O)N21` [A65, [(5R,8aS)-1-(1-methanesulfonyl-1-methyl-ethyl)-5-methyl-5,6,8a,9-tetrahydro-8H-7,10-dioxa-2,4,4b-triaza-phenanthren-3-yl]-(1H-pyrazol-4-ylmethyl)-amine], the concentration for half-maximal inhibition (IC50) fell in the range of 500 to 30000 nM.

As for `C[C@@H]1COC[C@H]2COc3c(nc(-c4ccc5cc(N)ncc5c4)nc3C(C)(C)S(C)(=O)=O)N21` [A66, 7-[(5R,8aS)-1-(1-methanesulfonyl-1-methyl-ethyl)-5-methyl-5,6,8a,9-tetrahydro-8H-7,10-dioxa-2,4,4b-triaza-phenanthren-3-yl]-isoquinolin-3-ylamine], the IC50 is 10 to 100 nM.

With `C[C@@H]1COC[C@H]2COc3c(nc(-n4cc(C(N)=O)cn4)nc3C(C)(C)S(C)(=O)=O)N21` [A68, 1-[(S)-1-(1-methanesulfonyl-1-methyl-ethyl)-5-(R)-methyl-5,6,8a,9-tetrahydro-8H-7,10-dioxa-2,4,4b-triaza-phenanthren-3-yl]-1H-pyrazole-4-carboxylic Acid Amide], the IC50 was in the range of 500 to 30000 nM.

On to `C[C@@H]1COC[C@H]2COc3c(nc(-n4cc(C#N)c5ccccc54)nc3C(C)(C)S(C)(=O)=O)N21` [A70, 1-[(5R,8aS)-1-(1-methanesulfonyl-1-methyl-ethyl)-5-methyl-5,6,8a,9-tetrahydro-8H-7,10-dioxa-2,4,4b-triaza-phenanthren-3-yl]-1H-indole-3-carbonitrile], for which the IC50 was 10 to 100 nM.

Regarding `C[C@@H]1COC[C@H]2COc3c(nc(-c4ccc5c(c4)CCNC5)nc3C(C)(C)S(C)(=O)=O)N21` [A71, (5R,8aS)-1-(1-methanesulfonyl-1-methyl-ethyl)-5-methyl-3-(1,2,3,4-tetrahydro-isoquinolin-6-yl)-5,6,8a,9-tetrahydro-8H-7,10-dioxa-2,4,4b-triaza-phenanthrene], the IC50 was 100 to 500 nM.

`C[C@@H]1COC[C@H]2COc3c(nc(Nc4cn[nH]c4)nc3C(C)(C)S(C)(=O)=O)N21` [A75, [(5R,8aS)-1-(1-methanesulfonyl-1-methyl-ethyl)-5-methyl-5,6,8a,9-tetrahydro-8H-7,10-dioxa-2,4,4b-triaza-phenanthren-3-yl]-(1H-pyrazol-4-yl)-amine]: the IC50 lay in the range of 10 to 100 nM.

Regarding `C[C@@H]1COC[C@H]2COc3c(nc(-c4ccc5ccncc5c4)nc3C(C)(C)S(C)(=O)=O)N21` [A76, (5R,8aS)-3-isoquinolin-7-yl-1-(1-methanesulfonyl-1-methyl-ethyl)-5-methyl-5,6,8a,9-tetrahydro-8H-7,10-dioxa-2,4,4b-triaza-phenanthrene], the IC50 lay within 10 to 100 nM.

For `C[C@@H]1COC[C@H]2COc3c(nc(-c4ccc5ncccc5c4)nc3C(C)(C)S(C)(=O)=O)N21` [A77, (5R,8aS)-1-(1-methanesulfonyl-1-methyl-ethyl)-5-methyl-3-quinolin-6-yl-5,6,8a,9-tetrahydro-8H-7,10-dioxa-2,4,4b-triaza-phenanthrene], the IC50 lay within 10 to 100 nM.

In the case of `C[C@@H]1COC[C@H]2COc3c(nc(Nc4nc[nH]n4)nc3C(C)(C)S(C)(=O)=O)N21` [A79, [(5R,8aS)-1-(1-methanesulfonyl-1-methyl-ethyl)-5-methyl-5,6,8a,9-tetrahydro-8H-7,10-dioxa-2,4,4b-triaza-phenanthren-3-yl]-(1H[1,2,4]triazol-3-yl)-amine], the IC50 lay within 10 to 100 nM.

Regarding `C[C@@H]1COC[C@H]2COc3c(nc(Oc4cn[nH]c4)nc3C(C)(C)S(C)(=O)=O)N21` [A80, (5R,8aS)-1-(1-methanesulfonyl-1-methyl-ethyl)-5-methyl-3-(1H-pyrazol-4-yloxy)-5,6,8a,9-tetrahydro-8H-7,10-dioxa-2,4,4b-triaza-phenanthrene], the IC50 lay in the range of 100 to 500 nM.

Regarding `C[C@@H]1COC[C@H]2COc3c(nc(-n4ccc(O)n4)nc3C(C)(C)S(C)(=O)=O)N21` [A82, 1-[(5R,8aS)-1-(1-methanesulfonyl-1-methyl-ethyl)-5-methyl-5,6,8a,9-tetrahydro-8H-7,10-dioxa-2,4,4b-triaza-phenanthren-3-yl]-1H-pyrazol-3-ol], the IC50 fell in the range of 10 to 100 nM.

For the compound `C[C@@H]1COC[C@H]2COc3c(nc(-c4cccc5c4CS(=O)(=O)N5)nc3C(C)(C)S(C)(=O)=O)N21` [A87, 4-[(10S,14R)-6-(2-methanesulfonylpropan-2-yl)-14-methyl-8,12-dioxa-1,3,5-triazatricyclo[8.4.0.0^{2,7}]tetradeca-2,4,6-trien-4-yl]-1,3-dihydro-2lambda6,1-benzothiazole-2,2-dione], the IC50 was in the range of 10 to 100 nM.

For `COc1cnc2[nH]ccc2c1-c1nc2c(c(C(C)(C)S(C)(=O)=O)n1)OC[C@@H]1COC[C@@H](C)N21` [A88, (10S,14R)-6-(2-methanesulfonylpropan-2-yl)-4-{5-methoxy-1H-pyrrolo[2,3-b]pyridin-4-yl}-14-methyl-8,12-dioxa-1,3,5-triazatricyclo[8.4.0.0^2,7]tetradeca-2,4,6-triene], the IC50 was in the range of 10 to 100 nM.

On to `C[C@@H]1COC[C@H]2COc3c(nc(-c4c(C#N)cnc5[nH]ccc45)nc3C(C)(C)S(C)(=O)=O)N21` [A89, 4-[(10S,14R)-6-(2-methanesulfonylpropan-2-yl)-14-methyl-8,12-dioxa-1,3,5-triazatricyclo[8.4.0.0^{2,7}]tetradeca-2,4,6-trien-4-yl]-1H-pyrrolo[2,3-b]pyridine-5-carbonitrile], for which the IC50 is 1 to 10 nM.
